Drawing on ChEMBL document CHEMBL5726062, “Substituted oxopyridine derivatives” (2019), this text covers IC50 for one compound.

One may read the IC50 as the point on the concentration scale where inhibition reaches its midpoint.

The target of the assay is Coagulation factor XI (Homo sapiens, UniProt P03951). The assay is described as follows: Measurement of FXIa Inhibition: The factor XIa inhibition of the substances according to the invention is determined using a biochemical test system which utilizes the reaction of a peptidic factor XIa substrate to determine the enzymatic activity of human factor XIa. Here, factor XIa cleaves from the peptic factor XIa substrate the C-terminal aminomethylcoumarin (AMC), the fluorescence of which is measured. The determinations are carried out in microtitre plates.Test substances are dissolved in dimethyl sulphoxide and serially diluted in dimethyl sulphoxide (3000 μM to 0.0078 μM; resulting final concentrations in the test: 50 μM to 0.00013 μM). 1 μl of the diluted substance solutions is placed into each of the wells of white microtitre plates from Greiner (384 wells). 20 μl of assay buffer (50 mM of Tris/HCl pH 7.4; 100 mM of sodium chloride; 5 mM of calcium chloride; 0.1% of bovine serum albumin) and 20 μl of factor XIa from Kordia (0.45 nM in assay buffer) are then added successively. After […] of incubation, the enzyme reaction is started by addition of 20 μl of the factor XIa substrate Boc-Glu(OBzl)-Ala-Arg-AMC dissolved in assay buffer (10 μM in assay buffer) from Bachem, the mixture is incubated at room temperature (22° C.) for 30 min and fluorescence is then measured (excitation: 360 nm, emission: 460 nm). […].
Sequence of Coagulation factor XI (P03951 19-387 limits assumed): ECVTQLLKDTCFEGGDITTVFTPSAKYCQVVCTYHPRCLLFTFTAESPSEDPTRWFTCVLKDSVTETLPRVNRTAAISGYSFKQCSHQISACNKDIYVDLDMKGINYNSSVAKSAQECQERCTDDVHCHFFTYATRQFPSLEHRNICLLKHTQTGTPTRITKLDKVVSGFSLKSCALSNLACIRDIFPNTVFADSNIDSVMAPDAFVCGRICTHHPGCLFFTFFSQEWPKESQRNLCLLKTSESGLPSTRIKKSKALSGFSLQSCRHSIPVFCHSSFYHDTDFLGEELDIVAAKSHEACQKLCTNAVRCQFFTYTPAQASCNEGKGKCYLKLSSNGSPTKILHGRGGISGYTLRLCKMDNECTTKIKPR
Sequence of Coagulation factor XI (P03951 388-625 limits assumed): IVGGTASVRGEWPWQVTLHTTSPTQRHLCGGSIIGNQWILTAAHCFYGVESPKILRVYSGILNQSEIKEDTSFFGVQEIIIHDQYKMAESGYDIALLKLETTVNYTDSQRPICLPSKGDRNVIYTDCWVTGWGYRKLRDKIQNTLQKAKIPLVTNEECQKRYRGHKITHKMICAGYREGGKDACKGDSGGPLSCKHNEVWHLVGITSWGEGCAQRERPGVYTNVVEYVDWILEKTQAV

In the case of `CNC(=O)c1ccc(NC(=O)C(Cc2cnco2)n2cc(OC)c(-c3cc(Cl)ccc3C#N)cc2=O)cn1` (racemic), the IC50 was 0.012 µM.
